Patent US20140309192A1, “MODULATORS OF THE G PROTEIN-COUPLED MAS RECEPTOR AND THE TREATMENT OF DISORDERS RELATED THERETO” (ARENA PHARMACEUTICALS, INC., priority 2011, published 2014)
Entries after “also recorded” stand apart in the source; their conditions may differ.

Assays:
human Mas receptor = target: T1, human Mas receptor (Homo sapiens, UniProt P04201); test: cAMP Dynamic2 HTRF assay, HEK293 cells stably expressing human Mas receptor; format: cell-based
T1 construct: expressed in transfected cells; host or cells: HEK293 (ATCC CRL-1573)
T1 sequence (P04201 1-325): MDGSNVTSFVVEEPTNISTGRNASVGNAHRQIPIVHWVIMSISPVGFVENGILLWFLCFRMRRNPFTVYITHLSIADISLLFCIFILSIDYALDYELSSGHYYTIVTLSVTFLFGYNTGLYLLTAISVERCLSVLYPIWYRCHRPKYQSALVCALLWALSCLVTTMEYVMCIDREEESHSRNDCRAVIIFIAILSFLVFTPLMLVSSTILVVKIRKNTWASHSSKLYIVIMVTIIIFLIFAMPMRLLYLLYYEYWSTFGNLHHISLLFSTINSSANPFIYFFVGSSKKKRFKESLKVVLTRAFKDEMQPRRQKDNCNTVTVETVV
Description: (§1) cAMP accumulation in HEK293 cells stably expressing human or rat Mas receptors was determined by the 384 well cAMP Dynamic2 Homogenous Time-Resolved Fluorescence (HTRF®) assay (CisBio Cat#62AM4PEB) following the manufacturer's protocol. Briefly, cells were plated at 30,000 or 1000 cells per well in 5 μL stimulation buffer (PBS containing 500 μM IBMX and 0.1% bovine serum albumin), 5 μL of Mas compounds diluted in PBS were added to each well and serial diluted cAMP standards were also added to corresponding wells at this step. For detecting […] activities, 10 μM forskolin was included with the compounds for a final concentration of 5 μM at the stimulation step. Following 1 h stimulation at room temperature, d2-labeled cAMP and anti-cAMP cryptate conjugate diluted in detection buffer (included in the kit) were added to cells sequentially at 5 μl per well. The plates were incubated further for 1 h at room temperature. Ratiometic measurements of fluorescence emission at 665 nm and 620 nm were obtained by Pherastar fluorometer (BMG Labtech) and cAMP levels in each well were calculated according to the standard curves on each plate. IC50 values were obtained by fitting data to a nonlinear curve-fitting program (GraphPad Software, Inc., La Jolla Calif.).

rat Mas receptor = target: T2, rat Mas receptor (Rattus norvegicus, UniProt P12526); test: cAMP Dynamic2 HTRF assay, HEK293 cells stably expressing rat Mas receptor; format: cell-based; settings: forskolin stimulated cAMP, means ± SEM, NR = No Response, read-out: Gi/cAMP IC50
T2 construct: expressed in transfected cells; host or cells: HEK293 (ATCC CRL-1573)
T2 sequence (P12526 1-324): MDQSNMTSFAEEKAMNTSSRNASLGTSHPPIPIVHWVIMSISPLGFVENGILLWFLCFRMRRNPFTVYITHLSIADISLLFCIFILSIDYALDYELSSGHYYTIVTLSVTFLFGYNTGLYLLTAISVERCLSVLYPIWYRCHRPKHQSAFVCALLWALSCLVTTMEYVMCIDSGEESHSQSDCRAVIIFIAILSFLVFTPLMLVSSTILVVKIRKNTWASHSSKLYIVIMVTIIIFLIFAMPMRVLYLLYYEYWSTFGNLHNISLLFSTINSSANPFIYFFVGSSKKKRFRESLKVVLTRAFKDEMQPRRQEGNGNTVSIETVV
Description: as §1

[1] = tested on: isolated perfused mouse hearts; test: Ex vivo coronary flow, Langendorff perfused isolated mouse hearts; settings: 1 μM
Description: (§2) Coronary flow was measured in male Mas^−/− and Mas^+/+ mice, and in male Sprague-Dawley rats using Langendorff perfused isolated hearts. Freshly isolated hearts were placed on a Langendorff apparatus (Harvard Apparatus) and perfused at a constant pressure of 80 mmHg with a modified Krebs-Henseleit buffer solution (Sigma K3753) and aerated with 95% oxygen and 5% carbon dioxide, pH 7.35-7.4. The temperature was maintained at 37° C. by surrounding the heart with a water-heated glassware chamber. Coronary flow was measured using a flow measurement system (Harvard Apparatus) which included the transit time flow meter and a flow probe built into an adaptor block located at the perfusate inflow port. Data were recorded continuously using an ISOHEART data acquisition system (Harvard Apparatus). After a 20-min equilibration period, Mas compounds were added to the perfusion buffer reservoir at the desired concentration (agonist AR234960 at 1 μM, or inverse agonist AR244555 at 5 μM) and coronary flow was recorded for 10 min

[2] = tested on: isolated perfused rat hearts; test: Ex vivo coronary flow, Langendorff perfused isolated rat hearts; settings: AR234960 1 μM
Description: as §2
To determine the role of the Mas-Gq-PLC pathway in regulating coronary flow, the Mas inverse agonist AR244555 (5 μM) or the PLC inhibitor U-73122 (0.5 μM) was added to the perfusion buffer for 10 min and then the agonist AR234960 (1 μM) was added to the perfusion buffer. Coronary flow was recorded for another 10 min Changes in coronary flow induced by AR234960 were calculated as percentage of the coronary flow at 10 min following AR234960 treatment, relative to the coronary flow measured immediately prior to addition of AR234960. This protocol allowed for measurement of agonist mediated vasoconstrictor activity, and accounted for changes in baseline coronary flow due to inverse agonist treatment alone.
To determine whether Mas agonist-induced changes in coronary flow were endothelium-dependent, the responses in Langendorff perfused hearts were measured after chemical removal of endothelium with sodium deoxycholate. After a 20-min equilibration period, sodium deoxycholate was added to the perfusion buffer at 0.2 mg/mL for 3 min and then washed out for 10 min Mas compounds were added and coronary flow was recorded for 10 min Adenosine (1 μM), a coronary vasodilator that targets the endothelium, was used as a control to verify effective removal of endothelium.

LPS induced TNFα = test: LPS model for sepsis induction, serum TNFα ELISA in mice; format: in vivo, mouse
Description: Mice were treated intravenously with either 20% DMSO (vehicle), 1, 3 or 10 mg/kg Compound 170 in 20% DMSO. Alternatively animals were treated with 1 mg/kg IB-MECA in 0.1% DMSO as a positive control (n=6 per group). 1 hour after drug treatment, animals received 500 μg of LPS intraperitoneally Animals were bled 75 minutes after LPS treatment and the blood was spun down for serum. An ELISA for mouse TNFα (Invitrogen) was performed on 1:50 diluted samples the following day.

Row | Compound | IC50 (human Mas receptor; cAMP assay with forskolin, read-out: Gi coupling IC50) [µM] | forskolin stimulated cAMP levels (Mas-Gi activity) (human Mas receptor; cells stably expressing human or rat Mas receptor, 5 μM forskolin) | IC50 (rat Mas receptor) [µM] | coronary flow, Mas knockout (Mas−/−) mouse hearts [1] | coronary flow, Mas+/+ mouse hearts [1] | coronary flow, wild type (Mas+/+) mouse hearts [1] | coronary flow in isolated perfused rat hearts ([2]; AR244555 5 μM, 10 min) | compound-mediated change in coronary flow in endothelium denuded hearts ([2]; after sodium deoxycholate, adenosine 1 μM) | Suppression of TNFα induction compared with positive control (LPS induced TNFα; 10 mg/kg i.v., IB-MECA 1 mg/kg) | Suppression of TNFα induction (LPS induced TNFα; 1, 3 or 10 mg/kg i.v. 1 hour before 500 μg LPS i.p., serum 75 minutes after LPS)
1 | COc1cc([N+](=O)[O-])ccc1S(=O)(=O)N1CC(CN2CCN(c3ccccn3)CC2)C(c2cccc(F)c2)C1 (stereo not shown) [AR234960] | 0.719 ± 0.012 | dose dependent reduction | 1.71 ± 0.011 | absent | 64 % of baseline | decreased coronary flow significantly | decrease in coronary flow; also recorded: significantly decreased | preserved | – | –
2 | NC(=O)[C@H](CO)NCc1ccc(C(=O)Nc2ccc(Cl)cc2N2CCN(CCC(F)(F)F)CC2)c(F)c1F [Compound 170, (S)-4-((1-Amino-3-hydroxy-1-oxopropan-2-ylamino)methyl)-N-(4-chloro-2-(4-(3,3,3-trifluoropropyl)piperazin-1-yl)phenyl)-2,3-difluorobenzamide] | – | – | – | – | – | – | – | – | not statistically different from the positive control IB-MECA | significant to control treated animals at the 10 and 3 mg/kg dose; also recorded: suppression of TNFα induction
